Experimental findings from patent US20040086900A1, “Cloning of mammalian genes in microbial organisms and methods for pharmacological screening” (priority 1990, published 2004) are described below.

Structures are written as SMILES. Entries after “also recorded” stand apart in the source; their conditions may differ.

One test concerns the target T1, yeast PDE2 (Saccharomyces cerevisiae, UniProt P06776).
T1 construct: made in house; host or cells: S. cerevisiae strain 10 DAB (pde1- pde2-), cell free extract
Description: Phosphodiesterase activity assay, cell free extract of 10 DAB yeast expressing yeast PDE2. In kind it is biochemical, S. cerevisiae. How it is done:
(§1) Yeast cells were grown at 30° C. for 36 hours in one liter cultures of synthetic media (SC-leucine). Cells were harvested and washed with buffer C ([…], 0.1 mM MgCl2, 0.1 mM EGTA, 1 mM β-mercaptoethanol), were resuspended in 30 ml buffer C with 50 μl 1M PMSF, and were disrupted with a French press. The extracts were centrifuged at 1,600 g for 10 min and the supernatants were spun at 18,000 g for 90 min (4° C.). The supernatant was assayed for phosphodiesterase activity (Sass, P., et al., Proc. Natl. Acad. Sci. USA 83:9303 (1986); Nikawa, J., et al., Mol. Cell. Biol. 7:3629 (1987)). All the reactions contained Tris-HCl (pH7.5) (100 mM), cell extract (50 μg protein/ml), 5′-nucleotidase (Sigma, 20 ng/ml) and 10 MM Mg^2+ (unless otherwise stated) and the indicated cyclic nucleotide concentrations. Assays for the cGMP hydrolysis used 1.5 μM cGMP. […] Reactions were incubated for 10 min at 30° C. and stopped with 5× stop solution (250 mM EDTA, 25 mM AMP, 100 mMcAMP).
This example illustrates the use of the genes and cells described in Example 1 to identify chemical compounds which inhibit the activity of a known enzyme, the rat DPD phosphodiesterase. To test the efficiency of known inhibitory compounds, cell free extracts were made as described in Phosphodiesterase Assays. Yeast cells deficient in endogenous phosphodiesterase (10 DAB), and expressing the rat DPD or yeast PDE2 genes from the described expression vector, were used. One liter cultures were harvested, washed in buffer C (20 mM MES/0.1 mM MgCl2/0.1 mM EGTA/1 mM 2-mercaptoethanol), resuspended in buffer C containing 1.5 mM phenylmethylsulfonyl fluoride, and disrupted in a French press at 4° C. Cell extracts were clarified at 100 g for 10 minutes and at 18000 g for 90 minutes. […] About 10^4 cpm were obtained for 10 minutes reactions and backgrounds (phosphodiesterase deficient-yeast or no extract) were about 300 cpm. The cytosolic fraction was assayed in the presence or absence of inhibitory compounds. […] The percent inhibition represents the decrease in phosphodiesterase activity relative to measurements made in the absence of inhibitors.

For test [1], the target named is T2, rat DPD phosphodiesterase (Rattus norvegicus, UniProt P14646).
T2 construct: A large open reading frame of 562 codons was found; The first ATG appears at codon 46; made in house; host or cells: S. cerevisiae strain 10 DAB (pde1- pde2-) transformed with pADPD, cell free extract
T2 sequence (P14646 220-736): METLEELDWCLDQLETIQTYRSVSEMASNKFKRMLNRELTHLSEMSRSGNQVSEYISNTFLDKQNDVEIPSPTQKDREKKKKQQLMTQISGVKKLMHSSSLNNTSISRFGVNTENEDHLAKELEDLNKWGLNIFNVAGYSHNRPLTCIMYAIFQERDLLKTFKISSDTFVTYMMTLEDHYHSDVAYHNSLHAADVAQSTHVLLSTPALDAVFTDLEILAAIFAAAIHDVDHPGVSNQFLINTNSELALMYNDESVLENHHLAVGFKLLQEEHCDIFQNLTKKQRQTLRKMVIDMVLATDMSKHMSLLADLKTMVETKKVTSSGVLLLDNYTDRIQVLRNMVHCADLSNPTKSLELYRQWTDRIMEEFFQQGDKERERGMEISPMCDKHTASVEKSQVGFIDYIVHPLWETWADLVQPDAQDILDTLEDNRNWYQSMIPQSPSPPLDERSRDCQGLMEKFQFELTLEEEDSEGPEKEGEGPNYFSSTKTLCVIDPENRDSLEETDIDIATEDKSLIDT
In words: Phosphodiesterase activity assay, cell free extract of 10 DAB yeast expressing rat DPD. Particulars: for Inhibition (%): DPD-1 extract. It counts as biochemical. As for the experimental part:
In order to analyse the biochemical properties of the DPD gene product, crude cell extracts were prepared from one liter cultures of 10 DAB which had been transformed with either pADNS or pADPD.
as §1
This example illustrates the use of the genes and cells described in Example 1 to identify chemical compounds which inhibit the activity of a known enzyme, the rat DPD phosphodiesterase. To test the efficiency of known inhibitory compounds, cell free extracts were made as described in Phosphodiesterase Assays. Yeast cells deficient in endogenous phosphodiesterase (10 DAB), and expressing the rat DPD or yeast PDE2 genes from the described expression vector, were used. One liter cultures were harvested, washed in buffer C (20 mM MES/0.1 mM MgCl2/0.1 mM EGTA/1 mM 2-mercaptoethanol), resuspended in buffer C containing 1.5 mM phenylmethylsulfonyl fluoride, and disrupted in a French press at 4° C. Cell extracts were clarified at 100 g for 10 minutes and at 18000 g for 90 minutes. […] The cytosolic fraction was assayed in the presence or absence of inhibitory compounds. […] The percent inhibition represents the decrease in phosphodiesterase activity relative to measurements made in the absence of inhibitors.

Test [2] relates to 10 DAB cells expressing DPD. In words: Heat shock survival of 10 DAB yeast cells expressing DPD. In kind it is cell-based, S. cerevisiae. The note with it: 100 μM, 40 minutes pretreatment, heat shock 50° C. 30 minutes. An excerpt: This example illustrates the use of the genes and methods described to identify chemical compounds which inhibit the function of the encoded mammalian proteins expressed in yeast, even when the function of that protein is not known. 10DAB cells, which are phosphodiesterase deficient, are sensitive to heat shock. As already discussed, when these cells express DPD, they become resistant to heat shock. […] 10 DAB cells expressing DPD were maintained in rich medium (YPD) for three days at stationary phase. […] Control cultures were not treated with any inhibitor. These cultures were then heat shocked in glass tubes at 50° C. for 30 minutes. One microliter of each culture was plated.

T1 sequence (P06776 whole entry): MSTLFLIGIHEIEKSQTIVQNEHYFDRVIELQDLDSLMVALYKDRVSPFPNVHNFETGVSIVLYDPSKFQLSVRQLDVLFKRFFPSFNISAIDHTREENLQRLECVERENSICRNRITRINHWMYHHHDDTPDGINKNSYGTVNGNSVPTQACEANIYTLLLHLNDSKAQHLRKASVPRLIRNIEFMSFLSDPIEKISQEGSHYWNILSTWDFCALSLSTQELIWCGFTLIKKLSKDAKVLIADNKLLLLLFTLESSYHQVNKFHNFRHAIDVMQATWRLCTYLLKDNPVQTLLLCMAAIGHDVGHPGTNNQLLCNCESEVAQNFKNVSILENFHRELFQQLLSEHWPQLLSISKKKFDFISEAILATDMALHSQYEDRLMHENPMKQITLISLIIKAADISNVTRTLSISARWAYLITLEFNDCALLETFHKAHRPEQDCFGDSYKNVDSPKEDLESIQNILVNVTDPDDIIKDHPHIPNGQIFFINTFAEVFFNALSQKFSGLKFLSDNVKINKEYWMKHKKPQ

As for `CC(C)Cn1c(=O)n(C)c(=O)c2[nH]cnc21` [IBMX], the “Inhibition (%)” value is 0.0% at yeast PDE2 (agent 250 μM) and 87. % in test [1] (agent 250 μM).
As for `CCCCOc1cc(CC2CNC(=O)N2)ccc1OC` (stereo not drawn) [R020 1724], the “Inhibition (%)” value on yeast PDE2 (agent 100 μM) was 3.0%; in test [1] (agent 0.1 μM), 35. %; in test [1] (agent 1.0 μM) it was 52. %; in test [1] (agent 10.0 μM), 79. %; in test [1] (agent 100.0 μM), 92. %. The “Inhibition of enzymatic activity of the rat DPD gene product (in words)” value in test [1] (cell extract, summary of Example 3) is listed as “most effective inhibitors of DPD activity; also recorded: inhibited”.
One may read the inhibition as the share of the control response that was lost under treatment. The low end stands for a weak effect, the high end for a strong effect. The molecule `COc1ccc(C2CNC(=O)C2)cc1OC1CCCC1` (stereo not drawn) [Rolipram] yielded an inhibition at 100 µM against yeast PDE2 (agent 100 μM) of 0%. Further, the “Heat shock sensitivity after treatment (inhibition of DPD function)” value in test [2] is “much more sensitive to heat shock; also recorded: suppression of heat shock resistance”.
Molecule `Cn1c(=O)c2[nH]cnc2n(C)c1=O` [Theophylline] yielded an inhibition at 250 µM against yeast PDE2 (agent 250 μM) of 0%.
`Nc1nc2c(ncn2[C@@H]2O[C@@H]3COP(=O)(O)O[C@H]3[C@H]2O)c(=O)[nH]1` [cGMP]: the “Inhibition of cAMP phosphodiesterase activity by cGMP” value in test [1] (5 μM cAMP, cGMP 100 fold over substrate (up to 500 μM)) is given as “unable to inhibit”.
